Assay results taken from the ASAP Discovery antiviral challenge data (2025).
Values after ≈ are worked out from the molar mass of the structure shown. Values joined by “and” are separate entries in the source; they are usually repeats but may differ in a detail not shown here. Equal entries are not always repeated.

Columns and labels:
[1] = mouse; liver_microsomes
[2] = human; liver_microsomes
[3] = mdck_mdr1
[4] = not given; remark: listed apart in the source

| SMILES | microsomal CLint [1] | microsomal CLint [2] | solubility kinetic | Papp [3] | logD [4] |
| --- | --- | --- | --- | --- | --- |
| NCc1cccc(CNC(=O)[C@H](NC(=O)OCc2ccccc2)c2ccc(OCc3ccccc3)cc2)c1 (racemic) | 2.73 µL/min/mg | 3.89 µL/min/mg | 78 µM (≈ 39.7 µg/mL) | 1.44 ×10⁻⁶ cm/s | 2.7 |
| Cc1nn(C)cc1-c1cc2c(N[C@H](c3ccc4c(c3)S(=O)(=O)CCC4)C(C)C)ncnc2[nH]1 (single isomer, unassigned) | 202 µL/min/mg and 390 µL/min/mg | 273 µL/min/mg and 251 µL/min/mg | 65 µM and 63 µM | 4.36 ×10⁻⁶ cm/s and 3.69 ×10⁻⁶ cm/s | 3.1 and 3.4 |
| CNC(=O)Cn1cc(-c2cc3c(N[C@H](c4ccc5c(c4)OCCO5)C(C)C)ncnc3[nH]2)cn1 (racemic) | 47 µL/min/mg | 119 µL/min/mg | 289 µM (≈ 133 µg/mL) | 1.94 ×10⁻⁶ cm/s | 2.9 |
| CC(C)[C@H](Nc1ncnc2[nH]c(-c3cnn(CC(N)=O)c3)cc12)c1ccc2c(n1)OCCO2 (single isomer, unassigned) | 5 µL/min/mg and 9 µL/min/mg | 12 µL/min/mg and 18 µL/min/mg | 377 µM and 395 µM | 1.27 ×10⁻⁶ cm/s and 0.47 ×10⁻⁶ cm/s | 2.3 and 2.4 |
| CNC(=O)c1c[nH]c2ncnc(N[C@H](c3ccc4c(c3)NC(=O)CO4)C(C)C)c12 (racemic) | 113 µL/min/mg | 86 µL/min/mg | 28 µM (≈ 11 µg/mL) | 4.26 ×10⁻⁶ cm/s | 3.2 |
| CCNC(=O)c1cc2c(N[C@H](c3ccc4c(c3)S(=O)(=O)CCC4)C(C)C)ncnc2[nH]1 (racemic) | 85 µL/min/mg | 108 µL/min/mg | 336 µM (≈ 148 µg/mL) | 0.7 ×10⁻⁶ cm/s | 2.8 |
| CNCc1cc(-c2cc3c(N[C@H](c4ccc5c(c4)S(=O)(=O)NCC5)C(C)C)ncnc3[nH]2)co1 (racemic) | 42 µL/min/mg | 46 µL/min/mg | 372 µM (≈ 179 µg/mL) | 1.2 ×10⁻⁶ cm/s | 1.9 |
| CC(C)[C@H](Nc1ncnc2[nH]ccc12)c1ccc2c(c1)S(=O)(=O)CCC2 (racemic) | 138 µL/min/mg | 37 µL/min/mg | 385 µM (≈ 143 µg/mL) | 3.3 ×10⁻⁶ cm/s | 2.5 |
| CNC(=O)c1cc(Cl)ccc1NS(=O)(=O)c1ccc(Oc2ccccc2Cl)cc1 | 94 µL/min/mg | 106 µL/min/mg | 25 µM (≈ 11.3 µg/mL) | 4.91 ×10⁻⁶ cm/s | 2.4 |
| CC(C)[C@H](Nc1ncnc2[nH]c(-c3cnn(CC(N)=O)c3)cc12)c1ccc2c(c1)S(=O)(=O)CCC2 (racemic) | 61 µL/min/mg | 116 µL/min/mg | 341 µM (≈ 168 µg/mL) | 0.32 ×10⁻⁶ cm/s | 1.9 |
| CNC(=O)c1cc2c(N[C@H](c3ccc4c(c3)NC(=O)CO4)C(C)C)ncnc2[nH]1 (racemic) | 20 µL/min/mg | 52 µL/min/mg | 372 µM (≈ 147 µg/mL) | 0.873 ×10⁻⁶ cm/s | 2.8 |
| CC(C)(C)[C@H](Nc1ncnc2[nH]c(-c3cnn(CC(N)=O)c3)cc12)c1ccc2c(n1)OCCO2 (racemic) | 31 µL/min/mg | 36 µL/min/mg | 48 µM (≈ 22.2 µg/mL) | 0.822 ×10⁻⁶ cm/s | 2.7 |
| CC(C)(C)[C@H](Nc1ncnc2[nH]c(-c3cnn(CC(N)=O)c3)cc12)c1ccc2c(c1)OCCO2 (racemic) | 47 µL/min/mg | 133 µL/min/mg | 195 µM (≈ 90 µg/mL) | 1.66 ×10⁻⁶ cm/s | 3.2 |
| COc1cc(Cc2c(-c3ccc(F)cc3)noc2C)nc(N2CCNCC2)n1 | 33 µL/min/mg | 15 µL/min/mg | 325 µM (≈ 125 µg/mL) | 4.78 ×10⁻⁶ cm/s | 2.1 |
| CNC(=O)Cn1cc(-c2cc3c(N[C@H](c4ccc5c(c4)S(=O)(=O)CCC5)C(C)C)ncnc3[nH]2)cn1 (racemic) | 77 µL/min/mg | 94 µL/min/mg | 306 µM (≈ 155 µg/mL) | 0.47 ×10⁻⁶ cm/s | 2.4 |
| CC(C)[C@H](Nc1ncnc2[nH]c(-c3cnn(C)c3C#N)cc12)c1ccc2c(c1)NC(=O)CO2 (racemic) | 177 µL/min/mg | 100 µL/min/mg | 69 µM (≈ 30.5 µg/mL) | 3.07 ×10⁻⁶ cm/s | 4.1 |
| CCNC(=O)c1cc2c(N[C@H](c3ccc4c(c3)OCCO4)C(C)C)ncnc2[nH]1 (racemic) | 88 µL/min/mg | 85 µL/min/mg | 72 µM (≈ 28.5 µg/mL) | 2.41 ×10⁻⁶ cm/s | 3 |
| CC(C)[C@@H](Nc1ncnc2[nH]c(-c3cnn(C)c3C#N)cc12)c1ccc2c(c1)OCCO2 | 129 µL/min/mg | 47 µL/min/mg | 20 µM (≈ 8.59 µg/mL) | 5.11 ×10⁻⁶ cm/s | 3.4 |
| Cn1ncc(-c2cc3c(N[C@H](c4ccc5c(c4)OCCO5)C(C)(C)C)ncnc3[nH]2)c1C#N (racemic) | 199 µL/min/mg | 85 µL/min/mg | 25 µM (≈ 11.1 µg/mL) | 2.79 ×10⁻⁶ cm/s | 2.9 |

| SMILES | microsomal CLint [1] | microsomal CLint [2] | solubility kinetic | Papp [3] | logD [4] |
| --- | --- | --- | --- | --- | --- |
| CNC(=O)Cn1cc(-c2cc3c(N[C@H](c4ccc5c(c4)S(=O)(=O)CCC5)C(C)C)ncnc3[nH]2)cn1 (single isomer, unassigned) | 111 µL/min/mg and 44 µL/min/mg | 92 µL/min/mg and 237 µL/min/mg | 323 µM and 294 µM | 0.396 ×10⁻⁶ cm/s and 0.916 ×10⁻⁶ cm/s | 2.4 and 2.3 |
| CNC(=O)c1cc2c(N[C@H](c3ccc4c(c3)S(=O)(=O)CCC4)C(C)C)ncnc2[nH]1 (racemic) | 46 µL/min/mg | 77 µL/min/mg | 369 µM (≈ 158 µg/mL) | 0.46 ×10⁻⁶ cm/s | 2.4 |
| CNCc1cc(-c2cc3c(N[C@H](c4ccc5c(c4)S(=O)(=O)CCC5)C(C)C)ncnc3[nH]2)co1 (racemic) | 52 µL/min/mg | 57 µL/min/mg | 321 µM (≈ 154 µg/mL) | 1.61 ×10⁻⁶ cm/s | 2.1 |
| CC(C)[C@H](Nc1ncnc2[nH]c(-c3cnn(C)c3C#N)cc12)c1ccc2c(c1)OCCO2 (racemic) | 218 µL/min/mg | 74 µL/min/mg | 17 µM (≈ 7.3 µg/mL) | 4.2 ×10⁻⁶ cm/s | 3 |
| Cc1cc(CCCOc2c(C)cc(-c3noc(C(F)(F)F)n3)cc2C)on1 | 21.5 µL/min/mg | 11.6 µL/min/mg | 18 µM (≈ 6.86 µg/mL) | 1.42 ×10⁻⁶ cm/s | 4.2 |
| CC(C)[C@H](Nc1ncnc2[nH]c(-c3cncc(S(C)(=O)=O)c3)cc12)c1ccc2c(c1)S(=O)(=O)CCC2 (racemic) | 272 µL/min/mg | 635 µL/min/mg | 31 µM (≈ 16.3 µg/mL) | 0.491 ×10⁻⁶ cm/s | 3.1 |
| CNC(=O)c1cc2c(N[C@H](c3ccc4c(c3)OCCO4)C(C)C)ncnc2[nH]1 (racemic) | 55 µL/min/mg | 79 µL/min/mg | 380 µM (≈ 145 µg/mL) | 1.96 ×10⁻⁶ cm/s | 2.76 |
| O=C(O)c1cc(Cl)ccc1NS(=O)(=O)c1ccc(Oc2ccccc2Cl)cc1 | 13 µL/min/mg | 155 µL/min/mg | 369 µM (≈ 162 µg/mL) | 4.01 ×10⁻⁶ cm/s | 3 |
| C[C@H](C(=O)O)[C@@H](NC(=O)c1ncnc2[nH]ccc12)c1ccc(Br)cc1 (single isomer, unassigned) | 4 µL/min/mg | 3 µL/min/mg | 358 µM (≈ 144 µg/mL) | 0.682 ×10⁻⁶ cm/s | 0.6 |
| C[C@H](C(=O)O)[C@H](NC(=O)c1ncnc2[nH]ccc12)c1ccc(Br)cc1 (mixture of isomers) | 4 µL/min/mg | 5 µL/min/mg | 386 µM | 1.4 ×10⁻⁶ cm/s | 0.5 |
| COc1ccc([C@H](Cc2nnn[nH]2)NC(=O)c2ncnc3[nH]ccc23)cc1 (single isomer, unassigned) | 7 µL/min/mg | 2 µL/min/mg | 367 µM (≈ 134 µg/mL) | 1.07 ×10⁻⁶ cm/s | -0.5 |
| CC(C)[C@H](Nc1ncnc2[nH]c(-c3cnn(C)c3C#N)cc12)c1ccc2c(n1)NC(=O)CO2 (single isomer, unassigned) | 131 µL/min/mg and 189 µL/min/mg | 137 µL/min/mg and 51 µL/min/mg | 28 µM (≈ 12.4 µg/mL) | 9.35 ×10⁻⁶ cm/s and 9.64 ×10⁻⁶ cm/s | 3.7 |
| CC(C)[C@H](Nc1ncnc2[nH]c(-c3cnn(CC(N)=O)c3)cc12)c1ccc2c(n1)OCCO2 (racemic) | 12 µL/min/mg | 14 µL/min/mg | 385 µM (≈ 173 µg/mL) | 2.46 ×10⁻⁶ cm/s | 2.4 |
| CC(C)[C@H](Nc1ncnc2[nH]cc(C(N)=O)c12)c1ccc2c(c1)OCCO2 (racemic) | 142 µL/min/mg | 143 µL/min/mg | 375 µM (≈ 138 µg/mL) | 11.1 ×10⁻⁶ cm/s | 3.2 |
| CC(C)[C@H](Nc1ncnc2[nH]c(-c3cnn(C)c3C#N)cc12)c1ccc2c(c1)OCCO2 | 257 µL/min/mg | 706 µL/min/mg | 15 µM (≈ 6.44 µg/mL) | 5.56 ×10⁻⁶ cm/s | 3.3 |
| CN(c1ccc2c(c1)CNC2)[C@H](C(=O)NCC(F)F)c1cc(Cl)cc(C2CC2)c1 (racemic) | 10.6 µL/min/mg | 17.1 µL/min/mg | 172 µM (≈ 72.2 µg/mL) | 2.1 ×10⁻⁶ cm/s | 1.6 |
| CCNC(=O)c1cc2c(N[C@H](c3ccc4c(c3)S(=O)(=O)NCC4)C(C)C)ncnc2[nH]1 (racemic) | 45 µL/min/mg | 85 µL/min/mg | 344 µM (≈ 152 µg/mL) | 1.96 ×10⁻⁶ cm/s | 2.6 |
| COCCNC(=O)c1c[nH]c2ncnc(N[C@H](c3ccc4c(c3)S(=O)(=O)CCC4)C(C)C)c12 (racemic) | 888 µL/min/mg | 540 µL/min/mg | 378 µM (≈ 178 µg/mL) | 1.62 ×10⁻⁶ cm/s | 2.8 |
